The values below come from PMC7367873, “Dissecting the sequence determinants for dephosphorylation by the catalytic subunits of phosphatases PP1 and PP2A” (Nature Communications, 2020).

Assay [1] deals with GFP-14-3-3β and its binding proteins. The assay can be described thus: GFP-14-3-3β co-IP with LC-MS/MS label-free quantification, untreated versus PP1c-treated. Also on record: species or system human. As for the experimental part:
(§1) HeLa Kyoto cells expressing transiently transfected pEGFP(C1)-14-3-3β or pEGFP(C1) control plasmid, were incubated with 20 nM Calyculin A (# 9902 S, Cell Signaling Technology) for 12 min. Cells were washed twice on ice with cold PBS and after addition of 500 µL lysis buffer (100 mM NaCl, 10 mM Tris, 0.1% IGEPAL, 1 mM EDTA, 1 mM EGTA, 20 nM Calyculin A, 1x cOmplete Mini protease inhibitor cocktail (Sigma), 1 mM DTT, 1 mM MnCl2) cells were scraped from plates, lysed by 10 pushes through an injection needle (21 G, BD) and the insoluble fraction was pelleted by centrifugation (10 min, 10^4 rcf, 4 °C). Supernatants were then subjected to incubation with 1 µM recombinant phosphatase or buffer for 1 h at 30 °C. Next, we subjected samples to immunoprecipitation using α-GFP nanobodies covalently coupled to agarose beads (2 h, 4 °C, obtained from the EMBL PEPcore Core Facility). Beads were then washed three times with lysis buffer and samples were eluted in 1x LDS sample buffer (Thermo Fisher Scientific) by heating to 70 °C for 10 min.
(§2) The samples were then reduced with 25 mM dithiothreitol (10 min at 70 °C) and alkylated with 55 mM chloroacetamide (room temperature, 30 min, in the dark). Proteins were run on a precast 4–12% NuPAGE gel (ThermoFisher Scientific) for about 1 cm to concentrate the sample prior to in-gel tryptic digestion, which was performed according to the standard procedures. The peptides obtained were dried to completeness and resuspended in 12 µL of buffer A (0.1% FA), and 5 µL of sample were injected per MS measurement. The experiment was carried out in three independent replicates.
(§3) The samples were analyzed by LC-MS/MS on a Dionex Ultimate 3000 nano-HPLC coupled online to a Fusion Lumos Tribrid mass spectrometer (Thermo Fisher Scientific). Peptides were delivered to a trap column (75 µm × 2 cm, packed in-house with 5 µm C18 resin; Reprosil PUR AQ, Dr. Maisch) and washed using 0.1% FA at a flow rate of 5 µL/min for 10 min. Subsequently, peptides were transferred to an analytical column (75 µm × 45 cm, packed in-house with 3 µm C18 resin; Reprosil Gold) applying a flow rate of 300 nL/min and separated using a 60 min linear gradient from 4% to 32% LC solvent B (0.1% FA, 5% DMSO in ACN) in LC solvent A (0.1% FA in 5% DMSO). The eluate from the analytical column was sprayed via a stainless steel emitter (Thermo Fisher Scientific) at a source voltage of 2.1 kV into the mass spectrometer. The transfer capillary was heated to 275 °C. The Fusion Lumos was operated in positive ionization mode and data-dependent acquisition (DDA), automatically switching between MS1 and MS2 spectrum acquisition. Full scan MS1 spectra were recorded in the Orbitrap from 360 to 1300 m/z at a resolution of 60k (automatic gain control (AGC) target value of 4e5 charges, maximum injection time (maxIT) of 50 ms). Up to 20 peptide precursors were isolated (isolation window, 1.7 m/z; maximum injection time, 25 ms; and AGC value, 1e5), fragmented by high-energy collision-induced dissociation (HCD) using 30% normalized collision energy (NCE), and analyzed at a resolution of 15k in the Orbitrap. Precursor ions that were singly charged, unassigned, or with charge states >6+ were excluded. The dynamic exclusion duration of fragmented precursor ions was 20 s.
(§4) Peptide and protein identification and LFQ were performed using MaxQuant software (version 1.6.1.0)[64] by searching the data against all canonical protein sequences as annotated in the Swissprot reference database (human proteins only, 20193 entries, downloaded 22 March 2016, internally annotated with PFAM domains) using the embedded search engine Andromeda[65]. The MaxQuant search was performed using two variable modifications; oxidation of methionine and N-terminal protein acetylation. Carbamidomethylation on cysteines was specified as a fixed modification. Trypsin (Trypsin/P) was specified as the proteolytic enzyme with up to two allowed missed cleavage sites.

The test system of the next assay is GFP-14-3-3β. The assay can be described thus: GFP-14-3-3β co-IP with LC-MS/MS, untreated GFP-14-3-3β versus GFP control (14-3-3 interactome). The class given is binding, human. As for the experimental part:
as §1, §2, §3, §4

[2] abbreviates: log2 difference, pairwise comparison PP1 vs untreated, label-free quantification, 3 replicates each.
[3] abbreviates: log2 difference, pairwise comparison untreated vs GFP, label-free quantification, 3 replicates each.
The mark [4] stands for this setting: pairwise comparison PP1 vs untreated.
Where [5] appears, read: pairwise comparison untreated vs GFP.
Setting [6] is: pairwise comparison PP1 vs untreated, student's t-test, 3 replicates each, LC-MS/MS label-free quantification.
Where [7] appears, read: pairwise comparison untreated GFP-14-3-3β vs GFP, student's t-test, 3 replicates each, LC-MS/MS label-free quantification.
Setting [8] is: PP1 vs untreated, LFQ intensities, replicates 1-3.
The mark [9] stands for this setting: untreated vs GFP, LFQ intensities, replicates 1-3.
Setting [10] is: GFP-14-3-3β co-IP LC-MS/MS, PP1 vs untreated, student's t-test, label-free quantification, 3 replicates each.
The mark [11] stands for this setting: GFP-14-3-3β co-IP LC-MS/MS, untreated vs GFP, student's t-test, label-free quantification, 3 replicates each.

NSUN2: the “Difference (log2), PP1 vs untreated” value in assay [1] (setting [2]) worked out at 1.3958. For the same substance, in the assay on GFP-14-3-3β (setting [3]), the “Difference (log2), untreated vs GFP” value is recorded as -0.08076.

As to EIF4G1, the “Difference (log2), PP1 vs untreated” value in assay [1] (setting [4]) was found to be 0.2022 log2. Moreover, the “Difference (log2), untreated vs GFP” value in the assay on GFP-14-3-3β (setting [5]) is recorded as 0.6525 log2.

For the substance ARHGAP21, the “Difference (log2), PP1 vs untreated” value in assay [1] (setting [6]) was -2.341 log2. Further, the “Difference (log2), untreated vs GFP” value in the assay with GFP-14-3-3β (setting [7]) was found to be 4.914 log2.

In the case of TNKS1BP1, the “Difference (log2), PP1 vs untreated” value in assay [1] (setting [8]) is recorded as -1.162 log2. Besides, in the assay on GFP-14-3-3β (setting [9]), the “Difference (log2), untreated vs GFP” value was 1.91 log2.

As to H2AFY, in assay [1] (setting [8]), the “Difference (log2), PP1 vs untreated” value was -1.711 log2. Also, the “Difference (log2), untreated vs GFP” value in the assay with GFP-14-3-3β (setting [9]) is 1.914 log2.

Consider CSE1L, for which the “Difference (log2), PP1 vs untreated” value in assay [1] (setting [4]) was found to be 0.2293 log2. In addition, the “Difference (log2), untreated vs GFP” value in the assay with GFP-14-3-3β (setting [5]) was -0.7283 log2.

PMS2: in assay [1] (setting [8]), the “Difference (log2), PP1 vs untreated” value was -0.8647 log2. In the assay with GFP-14-3-3β (setting [9]), the “Difference (log2), untreated vs GFP” value was 0.6772 log2.

TUBB4B: the “Difference (log2), PP1 vs untreated” value in assay [1] (setting [10]) was -0.5591 log2. Also, the “Difference (log2), untreated vs GFP” value in the assay on GFP-14-3-3β (setting [11]) was -0.8458 log2.

With FLNA, the “Difference (log2), PP1 vs untreated” value in assay [1] (setting [6]) was -2.217 log2. Further, the “Difference (log2), untreated vs GFP” value in the assay on GFP-14-3-3β (setting [7]) is on record as -0.8027 log2.

Consider DDX60, for which the “Difference (log2), PP1 vs untreated” value in assay [1] (setting [2]) is 1.555. Further, the “Difference (log2), untreated vs GFP” value with GFP-14-3-3β (setting [3]) is on record as -0.05993.

Regarding HERC2, in assay [1] (setting [4]), the “Difference (log2), PP1 vs untreated” value was found to be 0.111 log2. Further, the “Difference (log2), untreated vs GFP” value in the assay on GFP-14-3-3β (setting [5]) is reported as -0.06655 log2.

Regarding PIK3C2B, the “Difference (log2), PP1 vs untreated” value in assay [1] (setting [6]) was -3.205 log2. Further, the “Difference (log2), untreated vs GFP” value with GFP-14-3-3β (setting [7]) turned out to be 5.48 log2.

For PPIB, in assay [1] (PP1 vs untreated, LFQ intensities, 3 replicates each), the “Difference (log2), PP1 vs untreated” value worked out at 0.6708 log2. Also, the “Difference (log2), untreated vs GFP” value in the assay with GFP-14-3-3β (untreated vs GFP, LFQ intensities, 3 replicates each) is given as 0.09722 log2.

In the case of PPL, in assay [1] (setting [8]), the “Difference (log2), PP1 vs untreated” value is -1.031 log2. In the assay on GFP-14-3-3β (setting [9]), the “Difference (log2), untreated vs GFP” value is -0.5694 log2.

With SPTAN1, in assay [1] (setting [6]), the “Difference (log2), PP1 vs untreated” value is recorded as -2.033 log2. For the same substance, the “Difference (log2), untreated vs GFP” value with GFP-14-3-3β (setting [7]) is recorded as 0.5148 log2.

With WDR62, the “Difference (log2), PP1 vs untreated” value in assay [1] (setting [6]) was -3.602 log2. The “Difference (log2), untreated vs GFP” value in the assay on GFP-14-3-3β (setting [7]) was found to be 4.129 log2.

In the case of PFKP, in assay [1] (setting [2]), the “Difference (log2), PP1 vs untreated” value amounted to 1.388. Also, the “Difference (log2), untreated vs GFP” value in the assay with GFP-14-3-3β (setting [3]) is -0.1859.

NUP188: the “Difference (log2), PP1 vs untreated” value in assay [1] (setting [10]) was -0.6223 log2. The “Difference (log2), untreated vs GFP” value with GFP-14-3-3β (setting [11]) is recorded as 1.172 log2.

With MARK2, the “Difference (log2), PP1 vs untreated” value in assay [1] (setting [6]) is on record as -2.124 log2. For the same substance, in the assay on GFP-14-3-3β (setting [7]), the “Difference (log2), untreated vs GFP” value stood at 5.827 log2.

On to MYO5B, for which, in assay [1] (PP1 vs untreated, label-free quantification), the “Difference (log2), PP1 vs untreated” value came out at 1.198 log2. Besides, the “Difference (log2), untreated vs GFP” value with GFP-14-3-3β (untreated vs GFP, label-free quantification) is listed as -1.223 log2.

With PCM1, the “Difference (log2), PP1 vs untreated” value in assay [1] (setting [2]) is 2.301. Moreover, the “Difference (log2), untreated vs GFP” value in the assay with GFP-14-3-3β (setting [3]) is on record as -0.166.

With APC, the “Difference (log2), PP1 vs untreated” value in assay [1] (setting [4]) was 0.0453 log2. For the same substance, the “Difference (log2), untreated vs GFP” value in the assay with GFP-14-3-3β (setting [5]) came out at 0.7989 log2.

Take HEATR1: the “Difference (log2), PP1 vs untreated” value in assay [1] (setting [8]) was -1.168 log2. Further, the “Difference (log2), untreated vs GFP” value in the assay with GFP-14-3-3β (setting [9]) turned out to be 3.268 log2.

In the case of WWC1, the “Difference (log2), PP1 vs untreated” value in assay [1] (setting [6]) is on record as -3.748 log2. The “Difference (log2), untreated vs GFP” value with GFP-14-3-3β (setting [7]) was 3.436 log2.

YWHAZ: the “Difference (log2), PP1 vs untreated” value in assay [1] (setting [8]) was -1.298 log2. In addition, the “Difference (log2), untreated vs GFP” value with GFP-14-3-3β (setting [9]) is reported as 6.453 log2.

For the substance HSPA9, the “Difference (log2), PP1 vs untreated” value in assay [1] (setting [8]) is reported as -1.091 log2. In the assay with GFP-14-3-3β (setting [9]), the “Difference (log2), untreated vs GFP” value is on record as -0.4978 log2.

With KARS, the “Difference (log2), PP1 vs untreated” value in assay [1] (setting [10]) is -0.3502 log2. In addition, in the assay with GFP-14-3-3β (setting [11]), the “Difference (log2), untreated vs GFP” value is given as -0.1156 log2.
